Laboratory results as given in patent US6355799B1, “Substituted benzene compounds, process for their preparation, and herbicidal and defoliant compositions containing them” (ISK Americas Incorporated, priority 1997, dated 2002).

What was measured:
Assay type in all cases: in vivo
[1] = system: upland rice (Oryza sp., var. Tebonnet, RICE); assay: Pre-emerge test, crop safety; settings: rated 14 days after application, 0 = no damage, 100 = complete death
Outline: (§1)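 Compounds in acetone were track-sprayed at 187 l/ha, 15–1000 g ai/ha, onto sandy loam pots. Pre-emerge seeds were sown one day before spraying, with surface watering afterwards. Post-emerge plants were at the 2–3 leaf stage and sprayed with 0.25% v/v non-ionic surfactant. Injury was rated 0–100 at 14 days.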

[2] = system: field corn (Zea mays L., var. Dekalb 535, CORN); assay: Pre-emerge test, crop safety; settings: rated 14 days after application, 0 = no damage, 100 = complete death
Outline: as §1

[3] = system: large crabgrass (Digitaria sanguinalis, DIGSA); assay: Post-emerge test, greenhouse herbicide activity screening; settings: post-emerge, 14 days after application, rating scale 0-100
Outline: (§2)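 Herbicidal damage is scored 0 (none) to 100 (complete plant death) two weeks after a simulated field spray. Rates span 15–1000 g ai/ha, delivered in acetone at 187 l/ha. For post-emergence treatments, plants have 2–3 leaves and the spray carries 0.25% v/v non-ionic surfactant.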

[4] = system: johnsongrass (Sorghum halepense, SORHA); assay: as above; settings: post-emerge, 14 days after application, rating scale 0-100
Outline: as §2

[5] = system: sicklepod (Cassia obtusifolia, CASOB); assay: as above; settings: post-emerge, 14 days after application, rating scale 0-100
Outline: as §2

[6] = system: barnyardgrass (Echinochloa crus-galli, ECHCG); assay: as above; settings: post-emerge, 14 days after application, rating scale 0-100
Outline: as §2

[7] = system: common ragweed (Ambrosia artemisizfolia L., AMBEL); assay: as above; settings: post-emerge, 14 days after application, rating scale 0-100
Outline: as §2

[8] = system: ivyleaf morningglory (Ipomoea hederacea, IPOHE); assay: as above; settings: post-emerge, 14 days after application, rating scale 0-100
Outline: as §2

[9] = system: velvetleaf (Abutilon theophrasti, ABUTH); assay: as above; settings: post-emerge, 14 days after application, rating scale 0-100
Outline: as §2

[10] = system: lambsquarters (Chenopodium album, CHEAL); assay: as above; settings: post-emerge, 14 days after application, rating scale 0-100
Outline: as §2

[11] = system: redroot pigweed (Amaranthus retroflexus, AMARE); assay: as above; settings: post-emerge, 14 days after application, rating scale 0-100
Outline: as §2

[12] = system: upland rice (Oryza sp., var. Tebonnet, RICE); assay: Post-emerge test, crop safety; settings: post-emerge, 14 days after application, rating scale 0-100
Outline: (§3)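 Plants grown in 10 cm pots of sandy loam mix received acetone-dissolved compounds through a moving flat-fan nozzle. Doses ranged from 15 to 1000 g ai/ha. Pre-emerge pots were seeded one day earlier, post-emerge pots 8–21 days earlier. Fourteen days on, each pot was graded 0–100 for damage.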

[13] = system: field corn (Zea mays L., var. Dekalb 535, CORN); assay: Post-emerge test, crop safety; settings: post-emerge, 14 days after application, rating scale 0-100
Outline: as §3

[14] = system: large crabgrass (Digitaria sanguinalis, DIGSA); assay: Pre-emerge test, greenhouse herbicide activity screening; settings: rated 14 days after application, 0 = no damage, 100 = complete death
Outline: (§4)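 Rating: 0–100 visual injury, 14 DAA. Application: acetone, 187 l/ha, 15–1000 g ai/ha, flat-fan track sprayer with nozzle 40–45 cm above soil or canopy. Post-emerge runs used 0.25% v/v surfactant on 2–3 leaf plants.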

[15] = system: johnsongrass (Sorghum halepense, SORHA); assay: as above; settings: rated 14 days after application, 0 = no damage, 100 = complete death
Outline: as §4

[16] = system: sicklepod (Cassia obtusifolia, CASOB); assay: as above; settings: rated 14 days after application, 0 = no damage, 100 = complete death
Outline: as §4

[17] = system: barnyardgrass (Echinochloa crus-galli, ECHCG); assay: as above; settings: rated 14 days after application, 0 = no damage, 100 = complete death
Outline: as §4

[18] = system: green foxtail (Setaria viridis, SETVI); assay: as above; settings: rated 14 days after application, 0 = no damage, 100 = complete death
Outline: as §4

[19] = system: common ragweed (Ambrosia artemisizfolia L., AMBEL); assay: as above; settings: rated 14 days after application, 0 = no damage, 100 = complete death
Outline: as §4

[20] = system: ivyleaf morningglory (Ipomoea hederacea, IPOHE); assay: as above; settings: rated 14 days after application, 0 = no damage, 100 = complete death
Outline: as §4

[21] = system: velvetleaf (Abutilon theophrasti, ABUTH); assay: as above; settings: rated 14 days after application, 0 = no damage, 100 = complete death
Outline: as §4

[22] = system: lambsquarters (Chenopodium album, CHEAL); assay: as above; settings: rated 14 days after application, 0 = no damage, 100 = complete death
Outline: as §4

[23] = system: redroot pigweed (Amaranthus retroflexus, AMARE); assay: as above; settings: rated 14 days after application, 0 = no damage, 100 = complete death
Outline: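 Compounds in acetone were track-sprayed at 15-1000 g ai/ha (187 l/ha) on sandy loam pots: pre-emerge one day after seeding, post-emerge at 2-3 leaf stage with 0.25% v/v non-ionic surfactant. Phytotoxicity was rated 14 days later on a 0 (no damage) to 100 (complete death) scale.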

## COc1c(Cl)cc(F)c(-n2c(=O)cc(C(F)(F)F)n(C)c2=O)c1N(C(=O)c1ccc(F)c(F)c1)C(=O)c1ccc(F)c(F)c1 [2-49]
[1]; 63 g ai/ha
  Pre-emerge phytotoxicity rating (0-100), crop damage, RICE: 20
[1]; 250 g ai/ha
  Pre-emerge phytotoxicity rating (0-100), crop damage, RICE: 60
[2]; 63 g ai/ha
  Pre-emerge phytotoxicity rating (0-100), crop damage, CORN: 0
[2]; 250 g ai/ha
  Pre-emerge phytotoxicity rating (0-100), crop damage, CORN: 15
[3]; 63 g ai/ha
  phytotoxicity rating DIGSA: 0
[3]; 250 g ai/ha
  phytotoxicity rating DIGSA: 0
[4]; 63 g ai/ha
  phytotoxicity rating SORHA: 0
[4]; 250 g ai/ha
  phytotoxicity rating SORHA: 0
[5]; 63 g ai/ha
  phytotoxicity rating CASOB: 30
[5]; 250 g ai/ha
  phytotoxicity rating CASOB: 50
[6]; 63 g ai/ha
  phytotoxicity rating ECHCG: 0
[6]; 250 g ai/ha
  phytotoxicity rating ECHCG: 0
[7]; 63 g ai/ha
  phytotoxicity rating AMBEL: 50
[7]; 250 g ai/ha
  phytotoxicity rating AMBEL: 40
[8]; 63 g ai/ha
  phytotoxicity rating IPOHE: 70
[8]; 250 g ai/ha
  phytotoxicity rating IPOHE: 70
[9]; 63 g ai/ha
  phytotoxicity rating ABUTH: 90
[9]; 250 g ai/ha
  phytotoxicity rating ABUTH: 100
[10]; 63 g ai/ha
  phytotoxicity rating CHEAL: 60
[10]; 250 g ai/ha
  phytotoxicity rating CHEAL: 60
[11]; 63 g ai/ha
  phytotoxicity rating AMARE: 20
[11]; 250 g ai/ha
  phytotoxicity rating AMARE: 40
[12]; 63 g ai/ha
  phytotoxicity rating RICE: 0
[12]; 250 g ai/ha
  phytotoxicity rating RICE: 10
[13]; 63 g ai/ha
  phytotoxicity rating CORN: 0
[13]; 250 g ai/ha
  phytotoxicity rating CORN: 10
[14]; 63 g ai/ha
  Pre-emerge Herbicidal Activity, phytotoxicity rating (0-100), DIGSA: 20
[14]; 250 g ai/ha
  Pre-emerge Herbicidal Activity, phytotoxicity rating (0-100), DIGSA: 100
[15]; 63 g ai/ha
  Pre-emerge Herbicidal Activity, phytotoxicity rating (0-100), SORHA: 0
[15]; 250 g ai/ha
  Pre-emerge Herbicidal Activity, phytotoxicity rating (0-100), SORHA: 0
[16]; 63 g ai/ha
  Pre-emerge Herbicidal Activity, phytotoxicity rating (0-100), CASOB: 0
[16]; 250 g ai/ha
  Pre-emerge Herbicidal Activity, phytotoxicity rating (0-100), CASOB: 100
[17]; 63 g ai/ha
  Pre-emerge Herbicidal Activity, phytotoxicity rating (0-100), ECHCG: 0
[17]; 250 g ai/ha
  Pre-emerge Herbicidal Activity, phytotoxicity rating (0-100), ECHCG: 10
[18]; 63 g ai/ha
  Pre-emerge Herbicidal Activity, phytotoxicity rating (0-100), SETVI: 80
[18]; 250 g ai/ha
  Pre-emerge Herbicidal Activity, phytotoxicity rating (0-100), SETVI: 95
[19]; 63 g ai/ha
  Pre-emerge Herbicidal Activity, phytotoxicity rating (0-100), AMBEL: 100
[19]; 250 g ai/ha
  Pre-emerge Herbicidal Activity, phytotoxicity rating (0-100), AMBEL: 100
[20]; 63 g ai/ha
  Pre-emerge Herbicidal Activity, phytotoxicity rating (0-100), IPOHE: 0
[20]; 250 g ai/ha
  Pre-emerge Herbicidal Activity, phytotoxicity rating (0-100), IPOHE: 90
[21]; 63 g ai/ha
  Pre-emerge Herbicidal Activity, phytotoxicity rating (0-100), ABUTH: 100
[21]; 250 g ai/ha
  Pre-emerge Herbicidal Activity, phytotoxicity rating (0-100), ABUTH: 100
[22]; 63 g ai/ha
  Pre-emerge Herbicidal Activity, phytotoxicity rating (0-100), CHEAL: 100
[22]; 250 g ai/ha
  Pre-emerge Herbicidal Activity, phytotoxicity rating (0-100), CHEAL: 100
[23]; 63 g ai/ha
  Pre-emerge Herbicidal Activity, phytotoxicity rating (0-100), AMARE: 100
[23]; 250 g ai/ha
  Pre-emerge Herbicidal Activity, phytotoxicity rating (0-100), AMARE: 100
